{"source": "paper PMC7725824", "about": "“Fused isoselenazolium salts suppress breast cancer cell growth by dramatic increase in pyruvate-dependent mitochondrial ROS production” (Scientific Reports, 2020)", "key": {"[1]": {"experiment": "Cytotoxicity assay (MTT), HEKa", "format": "cell-based, human", "conditions": "human, HEKa cells (primary epidermal keratinocytes), normal cell line, mean ± S.D., 3 experiments", "method": "(§1) MCF-7 (human breast adenocarcinoma, estrogen-positive) and 4T1 (mouse carcinoma), as breast cancer cell lines, and H9C2 (rat cardiomyoblasts), NIH 3T3 (mouse fibroblasts), HEKa (primary human epidermal keratinocytes), MDCK (Madin-Darby Canine Kidney) cells, and A7r5 (rat vascular smooth muscle cells), as normal cell lines, were obtained from the American Type Culture Collection [ATCC] collection for use in the current study. All cell lines were cultured in Dulbecco's modified Eagle's medium (DMEM) containing 10% fetal bovine serum (FBS) and 4 mM L-glutamine at 37 °C and 5% CO2.\n(§2) Cell viability was assessed by the addition of 3-(4,5-dimethylthiazol-2-yl)-2,5-diphenyltetrazolinium bromide (MTT). Briefly, cells were seeded (2–6 × 10^4 cells/ml) in 96-well plates and allowed to attach for 24 h. Solutions of test compounds were prepared and serially diluted to obtain the appropriate concentrations. The cells were treated with the test compounds at different concentrations (0.032–100 µM) and incubated for 48 h at 37 °C and 5% CO2. Then, the culture medium was removed, and medium containing 0.2 mg/ml MTT was added. After 3 h (37 °C, 5% CO2), the MTT-containing medium was removed, and 200 μl of dimethyl sulfoxide (DMSO) was immediately added to each sample. The absorbance was assessed at 540 nm using a Tecan multiplate reader Infinite 1000 (Austria). The half-maximal inhibitory concentration (IC50) of each compound was calculated using Graph Pad Prism 3.0."}, "MCF-7 cells [2]": {"system": "MCF-7 cells", "experiment": "NAD+/NADH assay kit measurement", "format": "cell-based, human", "conditions": "2 μM, 10 min, vs control", "method": "The NAD^+/NADH ratio in the MCF-7 cells exposed to the test compounds (2 μM) for 10 min was measured using an NAD^+/NADH assay kit (Abcam, ab65348) according to the manufacturer's instructions."}, "[3]": {"experiment": "Cytotoxicity assay (MTT), H9C2", "format": "cell-based, rat", "conditions": "rat, H9C2 cells (cardiomyoblasts); normal cell line; MTT, 48 h; mean ± S.D., 3 experiments", "method": "as §1, §2"}, "DOPC liposomes [4]": {"system": "DOPC liposomes", "experiment": "1H NMR interaction study with DOPC liposomes", "format": "binding", "conditions": "0.4 mM 6, 1.6 mM DOPC, 25 °C", "method": "Cardiolipin (CL) liposomes for NMR analysis were prepared by the thin-film method followed by sonication and extrusion. […] The obtained lipid thin film was dried in vacuo overnight. Then, the dry lipid film was rehydrated in D18 HEPES buffer (20 mM, pH 7.4, 10% D2O) and gently vortexed, and the samples were sonicated for 30 min in a bath-type sonicator. The obtained sample of liposomes was extruded 21 times through a 100-nm pore polycarbonate filter (Nucleopore Corp., CA). Similarly, liposomes from DOPC only were prepared.\nTo study the interactions of compound 6 with CL and DOPC liposomes, a stock solution of 6 (2 mM) in D18 HEPES buffer (20 mM, pH 7.4, 10% D2O) was added to CL/DOPC or DOPC liposome dispersions to reach 400:1200:400 µM CL/DOPC/6 solution or 1600:400 µM DOPC/6 solution followed by gentle vortexing for 30 s.\nNMR spectra were acquired on a 600‐MHz Bruker Avance NEO spectrometer equipped with a 5 mm QCI-F quadruple resonance pulsed‐field‐gradient cryoprobe. The temperature was calibrated against methanol and set to 25 °C. Chemical shifts were referenced to the water resonance at 4.77 ppm with respect to 4,4-dimethyl-4-silapentane-1-sulfonic acid (DSS). The samples contained […] 6 in 90% H2O and 10% D2O with and without DOPC or CL/DOPC liposomes. The NMR data were processed and analyzed using MestReNova software."}, "MCF-7 cells [5]": {"system": "MCF-7 cells", "experiment": "Fluorometric measurement of NMN level", "format": "cell-based, human", "conditions": "2 μM, 10 min, vs control", "method": "For fluorometric measurements of NMN, a previously described method was used, with minor modifications. […] The cells were washed with PBS and then lysed by adding 200 μl of 1 M HClO4 to each well and incubating at 4 °C for 20 min. The cells were harvested by scraping and transferred to a tube. The extracts were neutralized with 100 μl of 2 M KOH for 5 min at room temperature and 50 μl of 0.1 M bicine (pH 7.4) was added. The samples were centrifuged at 14 000 × g for 10 min at 4 °C, and the supernatant was collected for further analysis. The protein concentration in each sample was determined using a Bio-Rad protein assay kit. […] The reaction was incubated for 2 min at 4 °C, after which 45 μl of 88% formic acid was added, and the samples were incubated for another 10 min at 37 °C on a shaker. The fluorescence was measured using a Tecan multiplate reader Infinite 1000 (Austria) with excitation at 382 nm and emission at […]."}, "DOPC liposomes [6]": {"system": "DOPC liposomes", "experiment": "Isothermal titration calorimetry with DOPC liposomes", "format": "binding", "conditions": "25 °C, 200 µM total lipid", "method": "The obtained large multilamellar liposomes were sonicated in a bath-type sonicator (Cole Parmer Ultrasonic Cleaner 8891CPX (USA)) at room temperature for 30 min and then extruded (LiposoFast-Basic, Avestin) through a 100 nm polycarbonate filter 21 times. The quality of the resulting small unilamellar vesicles was determined by dynamic light scattering (DLS) (Zetasizer Nano ZSP, Malvern Panalytical Ltd., UK).\nThe experiments were carried out using an isothermal titration calorimeter (MicroCal iTC200, Malvern Panalytical Ltd., UK). To carry out the titration, the injection syringe was filled with a solution of compound 6 (100 µM), and the reaction cell was filled with liposome dispersion (200 µM of total lipid). The experiments were performed at 25 and 37 °C with a stirring speed of 750 rpm. […] The data consisted of a series of heat flows as a function of time, which were collected automatically and analyzed by Origin 7 software (OriginLab Corporation, Northampton, USA, www.originlab.com, 2002). The changes in enthalpy (ΔH) due to the interactions between 6 and the liposome dispersions were recorded, and then stoichiometry (N), the association constant (KA), the dissociation constant (KD), entropy (ΔS) and the Gibbs free energy (ΔG) were calculated. The obtained sigmoidal titration curves were evaluated assuming independent saturable binding sites in the outer vesicle interface. […]"}, "4T1": {"system": "4T1", "experiment": "Cytotoxicity assay (MTT), 4T1", "format": "cell-based, mouse", "conditions": "Mus musculus, 4T1; breast cancer cell line; MTT, 48 h; mean ± S.D., 3 experiments; read-out: Cytotoxicity, IC50, 4T1", "method": "as §1, §2"}}, "data": [{"smiles": "OC1(c2[se][n+]3ccsc3c2Br)CCCCC1", "note": "[Compound 6, 3-bromo-2-(1-hydroxycyclohexyl)[1,2]selenazolo[2,3-b]thiazolium chloride]", "values": [{"measurement": "IC50 at 48 h", "setting": "[1]", "result": "2840 ± 80", "unit": "nM"}, {"measurement": "decrease in NAD+ level", "setting": "MCF-7 cells [2]", "result": 25, "unit": "%"}, {"measurement": "decrease in NAD+/NADH ratio", "setting": "MCF-7 cells [2]", "result": "without affecting"}, {"measurement": "decrease in NADH level", "setting": "MCF-7 cells [2]", "result": "without affecting"}, {"measurement": "IC50 at 48 h", "setting": "[3]", "result": "3700 ± 200", "unit": "nM"}, {"measurement": "aromatic 1H NMR resonances in the presence of DOPC liposomes", "setting": "DOPC liposomes [4]", "result": "noticeably broadened"}, {"measurement": "decrease in NMN levels", "setting": "MCF-7 cells [5]", "result": 26, "unit": "%"}, {"measurement": "ITC binding to DOPC liposomes", "setting": "DOPC liposomes [6]", "result": "no signs of binding"}, {"measurement": "IC50", "setting": "4T1", "result": "1700 ± 200", "unit": "nM"}]}]}
